SMILES strings stand for the structures.

Test [1] addresses PIK3CA (human), P42336 [Antiproliferation of PI3K Mutated BT20 Cells]. Description: Cell-Based Assay.
In a further test the target is PIK3CA (human) (UniProt P42336). Description: Inhibition of PIK3CA Kinase Activity.
Chain of PIK3CA (human) (P42336 whole entry, looked up): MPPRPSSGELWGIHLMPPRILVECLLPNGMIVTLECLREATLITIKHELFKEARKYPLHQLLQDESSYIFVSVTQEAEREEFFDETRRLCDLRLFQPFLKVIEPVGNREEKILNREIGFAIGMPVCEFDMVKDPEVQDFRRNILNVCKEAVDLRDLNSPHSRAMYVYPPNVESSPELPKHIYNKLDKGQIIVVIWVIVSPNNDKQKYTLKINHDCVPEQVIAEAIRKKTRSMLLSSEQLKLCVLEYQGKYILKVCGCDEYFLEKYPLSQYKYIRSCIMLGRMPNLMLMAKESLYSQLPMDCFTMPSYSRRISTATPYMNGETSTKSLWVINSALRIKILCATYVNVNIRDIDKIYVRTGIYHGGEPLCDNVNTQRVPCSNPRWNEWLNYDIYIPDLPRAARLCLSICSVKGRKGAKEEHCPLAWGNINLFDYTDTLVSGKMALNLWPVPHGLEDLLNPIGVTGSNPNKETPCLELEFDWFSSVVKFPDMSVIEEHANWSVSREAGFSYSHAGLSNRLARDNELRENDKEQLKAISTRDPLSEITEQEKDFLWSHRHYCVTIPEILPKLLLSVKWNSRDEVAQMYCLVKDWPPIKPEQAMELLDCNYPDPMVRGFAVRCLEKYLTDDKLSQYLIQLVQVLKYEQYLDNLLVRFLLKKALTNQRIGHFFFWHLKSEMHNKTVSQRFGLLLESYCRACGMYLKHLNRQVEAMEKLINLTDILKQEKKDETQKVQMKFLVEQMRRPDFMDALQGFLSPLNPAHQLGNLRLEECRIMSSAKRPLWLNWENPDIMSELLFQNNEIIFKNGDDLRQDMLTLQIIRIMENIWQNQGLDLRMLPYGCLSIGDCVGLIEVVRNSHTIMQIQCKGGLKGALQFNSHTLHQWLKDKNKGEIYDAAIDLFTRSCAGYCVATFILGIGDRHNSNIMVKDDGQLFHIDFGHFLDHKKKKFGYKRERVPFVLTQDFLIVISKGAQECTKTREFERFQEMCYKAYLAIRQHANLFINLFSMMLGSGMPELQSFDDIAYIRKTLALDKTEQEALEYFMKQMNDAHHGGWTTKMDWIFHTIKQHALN

Chain of PIK3CA (human), P42336 [Antiproliferation of PI3K Mutated BT20 Cells] (P42336 whole entry, looked up, change not shown): as the sequence (P42336 whole entry, looked up) above

As to `CNc1nc(C)c2cc(-c3cccc(O)c3)c(=O)n(C3CCCC3)c2n1`, the concentration for half-maximal inhibition (IC50) came out at 1.76 nM in test [1] and 0.731 nM on PIK3CA (human).
`Cc1nc(N)nc2c1cc(Br)c(=O)n2CC1CCCO1` (stereo not drawn): the IC50 came out at 2130 nM in test [1] and 100 nM on PIK3CA (human).
Taken in the same sequence, the figures for `Cc1nc(N)nc2c1cc(-c1cnc3ccccc3c1)c(=O)n2[C@H]1CC[C@H](O)CC1` were 42 nM and 8.2 nM.
On the same counts, the results for `COc1ccc(-c2cc3c(C)nc(N)nc3n(C3CCC(=O)CC3)c2=O)cn1` are 19.3 nM and 4.3 nM.
On the same counts, the results for `Cc1nc(N)nc2c1cc(-c1cn[nH]c1)c(=O)n2C1CCC(C)(O)CC1` (stereo not drawn) are 15.2 nM and 18 nM.
Consider `CNc1nc(C)c2cc(-c3ccc(O)c(OC)c3)c(=O)n(C3CCCC3)c2n1`, for which the IC50 in test [1] was found to be 3.82 nM; at PIK3CA (human) it was 1.57 nM.
Taken in the same sequence, the figures for `CNc1nc(C)c2cc(Br)c(=O)n(CC3CCOC3)c2n1` (stereo not drawn) were 594 nM and 48 nM.
Taken in the same sequence, the figures for `Cc1nc(N)nc2c1cc(-c1cnc(O)nc1)c(=O)n2C(C)C` were 2520 nM and 300 nM.
Taken in the same sequence, the figures for `COc1ncc(-c2cc3c(C)nc(N)nc3n([C@H]3C[C@H](OCC(N)=O)C3)c2=O)cn1` were 110 nM and 5.91 nM.
Take `CNc1nc(C)c2cc(C(N)=O)c(=O)n(C3CCCC3)c2n1`: the IC50 stood at 650 nM in test [1] and 68 nM against PIK3CA (human).
On the same counts, the results for `CNc1nc(C)c2cc(-c3cnn(CC(F)F)c3)c(=O)n(C3CCCC3)c2n1` are 10000 nM and 46 nM.
On to `CNc1nc(C)c2cc(-c3ccc(OC)nc3)c(=O)n(CC3CCOC3)c2n1` (stereo not drawn), for which the figures for the IC50 (in test [1]; against PIK3CA (human)) were 45.6 nM and 4.6 nM, respectively.
Consider `COc1ccc(-c2cc3c(C)nc(N)nc3n(CC(F)(F)F)c2=O)cn1`, for which the IC50 in test [1] is 262 nM; on PIK3CA (human) it was 130 nM.
On to `CNc1nc(C)c2cc(-c3cnn(C)c3)c(=O)n(C3CCCC3)c2n1`, for which the results for the IC50 (in test [1]; against PIK3CA (human)) were 314 nM and 39 nM, respectively.
Taken in the same sequence, the figures for `COc1ccc(-c2cc3c(C)nc(N)nc3n([C@H]3CC[C@H](OC[C@@H](O)CO)CC3)c2=O)cn1` were 13.2 nM and 6.82 nM.
Consider `Cc1nc(N)nc2c1cc(-c1cnc(N)cn1)c(=O)n2C1CCCC1`, for which the 50% inhibitory concentration (IC50) in test [1] was found to be 17.9 nM; at PIK3CA (human) it was 15 nM.
On the same counts, the results for `COc1ncc(-c2cc3c(C)nc(N)nc3n(C(C)C)c2=O)cn1` are 49.3 nM and 2.2 nM.
On the same counts, the results for `CO[C@H]1CC[C@H](n2c(=O)c(-c3ccc(N(C)C)nc3)cc3c(C)nc(N)nc32)CC1` are 10.1 nM and 6.2 nM.
For `COc1ncc(-c2cc3c(C)nc(N)nc3n([C@H]3C[C@H](OCC(N)=O)C3)c2=O)cc1F`, the IC50 in test [1] worked out at 12.6 nM; at PIK3CA (human) it was 2.14 nM.
Taken in the same sequence, the figures for `COc1ccc(-c2cc3c(C)nc(N)nc3n([C@H]3C[C@H](OCCO)C3)c2=O)cn1` were 50.8 nM and 10.2 nM.
On the same counts, the results for `Cc1nc(N)nc2c1cc(-c1ccc(C#N)nc1)c(=O)n2[C@H]1CC[C@H](O)CC1` are 2690 nM and 470 nM.
On the same counts, the results for `Cc1nc(N)nc2c1cc(-c1ccc(F)cc1)c(=O)n2CC(C)(C)O` are 10000 nM and 3400 nM.
As to `COc1ccc(-c2cc3c(C)nc(N)nc3n(CC3CCCO3)c2=O)cn1` (stereo not drawn), the IC50 in test [1] came out at 120 nM; against PIK3CA (human) it was 21 nM.
On the same counts, the results for `CCNc1nc(C)c2cc(CCCO)c(=O)n(C3CCCC3)c2n1` are 2750 nM and 4 nM.
As for `Cc1nc(N)nc2c1cc(-c1cccc(CO)c1)c(=O)n2C1CCCC1`, the IC50 in test [1] amounted to 20.2 nM; at PIK3CA (human), 3.1 nM.
On the same counts, the results for `Cc1nc(N)nc2c1cc(-c1ccc(Cl)nc1)c(=O)n2C1CCCC1` are 74.2 nM and 39.1 nM.
In the case of `COc1ncc(-c2cc3c(C)nc(N)nc3n(C3CCOCC3)c2=O)cn1`, the concentration for half-maximal inhibition (IC50) in test [1] is 26.7 nM; on PIK3CA (human) it was 45 nM.
On the same counts, the results for `COc1ncc(-c2cc3c(C)nc(N)nc3n([C@H]3C[C@H](OCCO)C3)c2=O)cc1F` are 14.6 nM and 3.11 nM.
Taken in the same sequence, the figures for `COc1ncc(-c2cc3c(C)nc(N)nc3n([C@H]3CC[C@H](OCCO)CC3)c2=O)cc1F` were 5.3 nM and 1.44 nM.
On the same counts, the results for `Cc1cc(-c2cc3c(C)nc(N)nc3n(C3CCCC3)c2=O)cnc1N(C)C` are 23.1 nM and 11 nM.
With `COc1ccc(-c2cc3c(C)nc(NCC(C)(C)O)nc3n(C3CCCC3)c2=O)cn1`, the IC50 in test [1] came to 5750 nM; against PIK3CA (human), 830 nM.
On the same counts, the results for `Cc1nc(N)nc2c1cc(-c1cnc3[nH]ccc3c1)c(=O)n2[C@H]1CC[C@H](O)CC1` are 31.9 nM and 1.3 nM.
Taken in the same sequence, the figures for `Cc1nc(N)nc2c1cc(-c1cn[nH]c1)c(=O)n2C1CN(C(=O)OC(C)(C)C)C1` were 41.5 nM and 120 nM.
On the same counts, the results for `Cc1nc(N)nc2c1cc(Br)c(=O)n2[C@H]1CC[C@H](O)CC1` are 305 nM and 44 nM.

The values are drawn from the Kinase Knowledgebase extract (Sharma et al. 2016).
